Source: PubChem BioAssay (NCI)
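Briefly, cells in 96-well plates were exposed to five compound concentrations for 48 h, and endpoints were estimated by linear interpolation. GI50 is the concentration that inhibits growth by half. TGI is the concentration that stops growth completely.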

How the values were obtained:
Assay in all cases: DTP human tumour cell line panel, 48 h
KM12 colon = test system: KM12 colon
CCRF-CEM leukemia = test system: CCRF-CEM leukemia
UO-31 renal = test system: UO-31 renal
SF-268 CNS = test system: SF-268 CNS
A549 NSCLC = test system: A549 NSCLC
NCI-H226 lung = test system: NCI-H226 lung
SK-MEL-28 melanoma = test system: SK-MEL-28 melanoma
HOP-62 NSCLC = test system: HOP-62 NSCLC

SMILES	GI50 (KM12 colon) [µM]	TGI (KM12 colon) [µM]	GI50 (CCRF-CEM leukemia) [µM]	TGI (CCRF-CEM leukemia) [µM]	GI50 (UO-31 renal) [µM]	TGI (UO-31 renal) [µM]	GI50 (SF-268 CNS) [µM]	TGI (SF-268 CNS) [µM]	GI50 (A549 NSCLC) [µM]	TGI (A549 NSCLC) [µM]	GI50 (NCI-H226 lung) [µM]	TGI (NCI-H226 lung) [µM]	GI50 (SK-MEL-28 melanoma) [µM]	TGI (SK-MEL-28 melanoma) [µM]	GI50 (HOP-62 NSCLC) [µM]	TGI (HOP-62 NSCLC) [µM]
c1ccc(C2ONC3=NCCN32)cc1 (stereo unspecified)	51.3	> 100	21.6	53.4	27.3	> 100	54.3	> 100	51.1	> 100	25.3	78.6	> 100	> 100	49.4	> 100
COc1cc(/C=C/C(=O)/C=C/c2cc(OC)c3c(c2)OCO3)cc2c1OCO2	1.98	4.07	5.95	> 100	5.77	> 100	5.47	> 100	3.05	15.1	34.8	> 100	39	> 100	4.46	> 100
CNC(=S)Nc1ccc(OC)c2ccccc12		> 10		> 10				> 10		> 10				> 10		> 10
COc1cc(C)ccc1C(=O)c1ccc(C)cc1OC	0.926	> 100	5.57	> 100	5.74	> 100	7.92	> 100	3.35	> 100	4.45	72.7	6.96	> 100	3.11	> 100
O=C(NCC1CC1)c1ccc(-c2cccc(C(=O)NC3CC3)c2)cc1	> 25	> 25	> 25	> 25	> 25	> 25	> 25	> 25	> 25	> 25	> 25	> 25	> 25	> 25	> 25	> 25
Nc1ncn([C@@H]2S[C@H](CO)[C@@H](O)[C@@H]2F)c(=O)n1	21.4	> 100	0.0399	> 100	0.372	> 100	4.28	> 100	0.512	> 100	9.99	> 100	> 100	> 100	0.951	> 100
O=S(=O)(/N=c1\scc(-c2ccccc2)n1-c1ccccc1)c1ccc(N2N=C3c4ccccc4CC3C2c2ccc(Cl)cc2)cc1 (stereo unspecified)	19.9	89	18.6	59.3	45.4	> 100	> 100	> 100	31.4	> 100	94.6	> 100	67.7	> 100	93.9	> 100
C/C(=N/O)c1cccc(Nc2cc(-n3nnc4ccccc43)nc3ccccc23)c1	9.48	28.4	3.98	18.6	25	> 100	17.2	> 64	13.3	> 72.9	11.8	47.3	21.1	> 68	20.5	44.2
COC(=O)C1=C(O)C(C(=O)OC)C2CC(=O)CC1C2(C)C (stereo unspecified)		> 100		> 100		> 100		> 100		> 100		> 100		> 100		> 100
CC(=O)c1c(O)c(C)c(O)c(Cc2c(O)c3c(c(C(=O)/C=C/c4ccccc4)c2O)OC(C)(C)C=C3)c1O		16.7		> 100		8.19		85.7		5.13		23		14.9		
CC(CO)Nc1cc(-c2[nH]c3cccnc3c2-c2ccc(F)cc2)ccn1 (stereo unspecified)	19.1	> 25	> 25	> 25	3.89	> 25	16.7	> 25	8.47	> 25	> 23.8	> 25	> 25	> 25	> 25	> 25
CCc1c2c(nc3ccc(OCc4ccc(B(O)O)cc4)cc13)-c1cc3c(c(=O)n1C2)COC(=O)[C@]3(O)CC	0.15	> 51.9	< 0.01	> 100	0.031	0.913			0.0681	> 32.3	0.0187	0.339	0.477	> 100	< 0.01	
N#C[Se]Cc1cc(-c2ccccc2)n(-c2ccc(S(N)(=O)=O)cc2)n1	0.881	3.22	0.914	> 27.3	1.49	5.96	0.336	1.33	0.605	2.12	0.249	0.648	0.359	1.34		
O=C(Nc1cccc(Cl)c1)Nn1cnnc1	> 50	> 100	> 50	> 100	> 50	> 100	> 50	> 100	> 50	> 100	> 50	> 100	> 50	> 100	> 50	> 100
O=C(Oc1cccnc1)c1cccnc1Nc1ccnc(C(F)(F)F)c1	4.01	18.2	2.49	10.5	10	81.5	5.63	> 100	> 100	> 100	12.3	71.4	38.1	> 100	13.7	36
CO/N=C(\COc1ccc2c(c1)[nH]c1ccccc12)c1ccc(OC)cc1	> 100	> 100	> 100	> 100	> 100	> 100	56.1	> 100	5.29	25.2	> 100	> 100	11.8	69.3	6.26	64
CC1=C2C(=C[C@@](C)(CO)[C@@H]2OC(=O)N(C)CCN(C)C(=O)OC(C)(C)C)C(=O)[C@](C)(O)C12CC2	9.9	> 50	18.8	> 50	2.17	14.9	1.78	18.7	5.88	> 50	11.7	34.7	9.83	26.5		
COc1ccc(C2=Nn3c(nnc3-c3cc(Cl)cc(Cl)c3Cl)SC2)cc1	0.384	8.89	0.519	> 100	0.379	29.2	1.3	> 100	0.631	> 37.4	0.778	> 100		> 100	0.478	> 36.2

SMILES	GI50 (KM12 colon) [µM]	TGI (KM12 colon) [µM]	GI50 (CCRF-CEM leukemia) [µM]	TGI (CCRF-CEM leukemia) [µM]	GI50 (UO-31 renal) [µM]	TGI (UO-31 renal) [µM]	GI50 (SF-268 CNS) [µM]	TGI (SF-268 CNS) [µM]	GI50 (A549 NSCLC) [µM]	TGI (A549 NSCLC) [µM]	GI50 (NCI-H226 lung) [µM]	TGI (NCI-H226 lung) [µM]	GI50 (SK-MEL-28 melanoma) [µM]	TGI (SK-MEL-28 melanoma) [µM]	GI50 (HOP-62 NSCLC) [µM]	TGI (HOP-62 NSCLC) [µM]
CCCN1C(=O)NC(=O)C(CC)(N2C(=O)c3c(F)c(F)c(F)c(F)c3C2=O)C1=O (stereo unspecified)	1.42	2.84	1.1	3.24	1.63	4.32	2	5.07	2.84	8.45	3.08	12.1	1.71	3.22	2.04	4.4
CN1CCN(C(=S)N(C)C(=O)c2ccco2)CC1		> 100		> 100		> 100				> 100		> 100				
c1ccc(NN(Cc2cnccn2)c2ccccc2)cc1		> 100		51.2				> 100		> 100		> 100		> 100		> 100
C=C1CCC2C3(C)COC(C)(C)OC3CCC2(C)C1C/C=C1/C(=O)OCC1OC(C)=O (stereo unspecified)	3.88	13.4	1.81	11.5	6.27	15.5	5.83	17.6	3.5	12.8	12.8	33.7	2.21	4.94	11.9	25
O=C1C=CC(=O)c2c1ccc1c3ccccc3n(Cc3ccc([N+](=O)[O-])cc3)c21		> 100		40.8		> 100		> 100		> 100		> 100		> 100		> 100
C=CCc1c(Cl)nc(Cl)nc1Cl		0.888		0.0234		0.165		14.4		5.91		1.69		1.93		1.07
Nc1nc2ccc(-c3nc4ccc5[nH]ncc5c4c4c3CCC4)cc2s1	0.205	9.01	0.225	50	0.741	3.58	0.478	20.2	0.44	23.9	1.1	10.1	0.638	7.89	0.415	13.6
CC(=O)Nc1ccc(-c2cc(C(=O)O)c3cc4ccccc4cc3n2)cc1		> 100						> 100		> 100		> 100		> 100		> 100
N=C1C(O)C2(I)c3ccccc3N3C(=N)C(O)C4c5ccccc5N1C4C32 (stereo unspecified)		34.8		18.6		> 100		> 100		> 100				> 100		> 100
CCOC(=O)Oc1c(OC)cc(C(=O)c2ccc(OC)c(O)c2OC)cc1OC	0.52	> 100	0.41	> 100	3.54	> 100	10.7	> 100	3.96	> 100	4.56	40.7	2.78	> 100	0.962	> 100
Cc1ccc2cnc(N)c(C#Cc3cc(C(=O)Nc4ccc(CN5CCN(C)CC5)c(C(F)(F)F)c4)cnc3C)c2c1	0.005	1.02	0.917	2.85	0.621	1.3	0.559	1.27			0.538	1.74	0.609	1.36	0.887	2.76
Oc1cccc(Nc2nc3ccccc3c3occc23)c1	3.24	13			10.5	22.2	4.39	17.5	10.9	22.8			0.364	12.5	15.1	33.5
c1ccc(-c2nc(-c3ccccn3)nc(-c3ccccn3)n2)nc1	32.4	> 100	14.4	> 100	3.18	> 100	32.4	> 100	47.9	> 100	44.9	> 100	71	> 100	30.4	> 100
O=C(O)c1nc(NCc2nc3cc(Cl)ccc3o2)n[nH]1	> 100	> 100	> 100	> 100	> 100	> 100	> 100	> 100	> 100	> 100	> 100	> 100	> 100	> 100	> 100	> 100
O=c1oc2ccccc2c2c1Sc1ccccc1N2		> 100		> 100		> 100		> 100				> 100		> 100		> 100
CCSCCCSCCSCC		> 100		> 100		> 100		> 100		> 100				> 100		> 100
COc1cccc(-c2nc3cc(NC(=O)c4ccc(Cl)c(C#N)c4)ccc3o2)c1	1.95	4.48	> 100	> 100	3.95	> 100			1.88	3.8	6.49	> 100			12.9	> 100
CC(=O)c1c(C(F)(F)F)n([O-])c2ccccc2[n+]1=O	1.19	3.43			2.69	12.1	1.49	6.13	2.28	14.3	1.46	3.91	3.48	18	2.34	11.9
